Test system: rat
Experiment: Analgesic Activity: Rat Hot Plate Assay
Format: in vivo
Details: for ED50: po, 1 h, p.o. in rat, single substance, 60 min prior to testing, plate 45±1.0° C., ± standard error
From the text: The rat hot plate assay incorporated two modifications of the mouse hot plate assay originally described by Eddy et al., J. Pharmacol. Exp. Ther. 98, 121-137 (1950). The first modification was enlargement of the diameter of the cylindrical (water filled) copper plate to 25.0 cm to accommodate rats instead of mice. The second modification was the use of a temperature controller to regulate a 250 watt infrared heat lamp which was activated via a thermistor probe attached to the under surface of the copper plate, the temperature of which was thus maintained at 45±1.0° C. (N=28 measurements of the plate temperature under experimental conditions). The time required for a rat placed on the hot plate to respond by lifting, shaking or licking either of its hind or forelimbs was recorded in tenths of a second. Only animals responding in pretest within 6-13 seconds were used in the studies. The combination, comprising an intimate mixture of codeine phosphate with compound I, was suspended in 0.5% sodium carboxymethylcellulose and administered orally, by gavage, in a volume of 1.00 ml/100 g.b. wt. 60 min prior to testing. […] The reaction time of 18.3 seconds represented the sum of the mean pretest times of 40 untreated rats plus the time of 3 standard deviations of the mean. ED50 's and their standard errors were estimated from a graph of the dose-response curves using the method of Miller and Tainter (Proc. Soc. Exp. Biol. Med. 57, 261-262 (1944). Following this procedure the analgesic activities of codeine, compound I and the combination (codeine+compound I) were compared (Table I).

Structure (SMILES)	ED50	potentiation of the analgesic activity of codeine (upon oral administration, compound I with codeine, species not stated)
O=C1CCCN1c1ccc2c(c1)OCO2 [Compound I, 1-(1,3-benzodioxol)-5-yl-2-pyrrolidinone]	86 ± 16.5 mg/kg	four to seven
COc1ccc2c3c1O[C@H]1[C@@H](O)C=C[C@H]4[C@@H](C2)N(C)CC[C@@]341 [Codeine Phosphate, reference compound]	57 ± 35.3 mg/kg	

Source: patent US4438142A, “Pharmaceutical combination” (Burroughs Wellcome Co., priority 1982, dated 1984)
